Measured values from PubChem BioAssay (NCI).
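Values below derive from 48-hour exposures of cells grown in 96-well plates, with endpoints linearly interpolated between the two concentrations bracketing the appropriate inhibition level. Definition used: TGI = concentration required for complete inhibition of growth.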

Legend:
Assay in all cases: growth of human tumour cells (NCI), 48 h
IGROV1 ovarian = tested on: IGROV1 ovarian
SN12C renal = tested on: SN12C renal
ACHN renal = tested on: ACHN renal
OVCAR-4 ovarian = tested on: OVCAR-4 ovarian
SW-620 colon = tested on: SW-620 colon
MOLT-4 leukemia = tested on: MOLT-4 leukemia
RPMI-8226 leukemia = tested on: RPMI-8226 leukemia
PC-3 prostate = tested on: PC-3 prostate
SF-295 CNS = tested on: SF-295 CNS
HCT-116 colon = tested on: HCT-116 colon
TK-10 renal = tested on: TK-10 renal
COLO 205 colon = tested on: COLO 205 colon
UO-31 renal = tested on: UO-31 renal
LOX IMVI melanoma = tested on: LOX IMVI melanoma
T-47D breast = tested on: T-47D breast
OVCAR-5 ovarian = tested on: OVCAR-5 ovarian
EKVX NSCLC = tested on: EKVX NSCLC
SK-OV-3 ovarian = tested on: SK-OV-3 ovarian
NCI/ADR-RES ovarian = tested on: NCI/ADR-RES ovarian
NCI-H460 lung = tested on: NCI-H460 lung
HT29 colon = tested on: HT29 colon
CAKI-1 renal = tested on: CAKI-1 renal
HCT-15 colon = tested on: HCT-15 colon
M14 melanoma = tested on: M14 melanoma
SF-268 CNS = tested on: SF-268 CNS
RXF 393 renal = tested on: RXF 393 renal
HOP-92 NSCLC = tested on: HOP-92 NSCLC
U251 CNS = tested on: U251 CNS
SK-MEL-2 melanoma = tested on: SK-MEL-2 melanoma
MCF7 breast = tested on: MCF7 breast
SNB-75 CNS = tested on: SNB-75 CNS
786-0 renal = tested on: 786-0 renal
A549 NSCLC = tested on: A549 NSCLC
K-562 leukemia = tested on: K-562 leukemia
MDA-MB-435 = tested on: MDA-MB-435
OVCAR-3 ovarian = tested on: OVCAR-3 ovarian
MDA-N = tested on: MDA-N
NCI-H226 lung = tested on: NCI-H226 lung
BT-549 breast = tested on: BT-549 breast
SF-539 CNS = tested on: SF-539 CNS
SR leukemia = tested on: SR leukemia
A498 renal = tested on: A498 renal
SNB-19 CNS = tested on: SNB-19 CNS
HL-60(TB) leukemia = tested on: HL-60(TB) leukemia
OVCAR-8 ovarian = tested on: OVCAR-8 ovarian
NCI-H522 lung = tested on: NCI-H522 lung
NCI-H23 lung = tested on: NCI-H23 lung
MDA-MB-231 breast = tested on: MDA-MB-231 breast
SK-MEL-5 melanoma = tested on: SK-MEL-5 melanoma
CCRF-CEM leukemia = tested on: CCRF-CEM leukemia
MALME-3M melanoma = tested on: MALME-3M melanoma
HOP-62 NSCLC = tested on: HOP-62 NSCLC
SK-MEL-28 melanoma = tested on: SK-MEL-28 melanoma
DU-145 prostate = tested on: DU-145 prostate
UACC-257 melanoma = tested on: UACC-257 melanoma
UACC-62 melanoma = tested on: UACC-62 melanoma
KM12 colon = tested on: KM12 colon
HCC-2998 colon = tested on: HCC-2998 colon

## Cc1c2cccc-2ccc2c1[nH]c1ccccc12
IGROV1 ovarian
  TGI: 5.77 µM
SN12C renal
  TGI: 7.01 µM
ACHN renal
  TGI: 3.2 µM
OVCAR-4 ovarian
  TGI: 5.09 µM
SW-620 colon
  TGI: 7.68 µM
MOLT-4 leukemia
  TGI: 28.2 µM
RPMI-8226 leukemia
  TGI: 8.28 µM
PC-3 prostate
  TGI: 3.45 µM
SF-295 CNS
  TGI: 5.62 µM
HCT-116 colon
  TGI: 4.96 µM
TK-10 renal
  TGI: 4.92 µM
COLO 205 colon
  TGI: 3.68 µM
UO-31 renal
  TGI: 3.14 µM
LOX IMVI melanoma
  TGI: 6.41 µM
T-47D breast
  TGI: 8.45 µM
OVCAR-5 ovarian
  TGI: 4.77 µM
EKVX NSCLC
  TGI: 3.68 µM
SK-OV-3 ovarian
  TGI: 11 µM
NCI/ADR-RES ovarian
  TGI: > 27.3 µM
NCI-H460 lung
  TGI: 3.57 µM
HT29 colon
  TGI: 14.4 µM
CAKI-1 renal
  TGI: 19.3 µM
HCT-15 colon
  TGI: 9.01 µM
M14 melanoma
  TGI: 3.7 µM
SF-268 CNS
  TGI: 4 µM
RXF 393 renal
  TGI: 9.42 µM
HOP-92 NSCLC
  TGI: 7.75 µM
U251 CNS
  TGI: 3.17 µM
SK-MEL-2 melanoma
  TGI: 3.39 µM
MCF7 breast
  TGI: 12.9 µM
SNB-75 CNS
  TGI: 4.33 µM
786-0 renal
  TGI: 10.1 µM
A549 NSCLC
  TGI: 5.65 µM
K-562 leukemia
  TGI: 11 µM
MDA-MB-435
  TGI: 4.68 µM
OVCAR-3 ovarian
  TGI: 6.03 µM
MDA-N
  TGI: 4.15 µM
NCI-H226 lung
  TGI: 3.92 µM
BT-549 breast
  TGI: 9.56 µM
SF-539 CNS
  TGI: 3.42 µM
SR leukemia
  TGI: 18.9 µM
A498 renal
  TGI: 28.5 µM
SNB-19 CNS
  TGI: 10.3 µM
HL-60(TB) leukemia
  TGI: 9.38 µM
OVCAR-8 ovarian
  TGI: 7.07 µM
NCI-H522 lung
  TGI: 3.9 µM
NCI-H23 lung
  TGI: 8.99 µM
MDA-MB-231 breast
  TGI: 3.48 µM
SK-MEL-5 melanoma
  TGI: 3.34 µM
CCRF-CEM leukemia
  TGI: > 26.1 µM
MALME-3M melanoma
  TGI: 4.03 µM
HOP-62 NSCLC
  TGI: 12.9 µM
SK-MEL-28 melanoma
  TGI: 3.67 µM
DU-145 prostate
  TGI: 15.7 µM
UACC-257 melanoma
  TGI: 3.12 µM
UACC-62 melanoma
  TGI: 3.79 µM
KM12 colon
  TGI: 5.57 µM

## CCCC(=O)Nc1cc(/C=C/C(=O)N2CC(CCl)c3ccc(N)cc32)n(C)c1 (configuration not stated)
SN12C renal
  TGI: 6.62 µM
OVCAR-4 ovarian
  TGI: 0.697 µM
SW-620 colon
  TGI: > 100 µM
PC-3 prostate
  TGI: > 100 µM
HCT-116 colon
  TGI: 14.1 µM
TK-10 renal
  TGI: 0.471 µM
COLO 205 colon
  TGI: 0.3 µM
HCC-2998 colon
  TGI: 0.34 µM
LOX IMVI melanoma
  TGI: > 100 µM
T-47D breast
  TGI: 0.601 µM
OVCAR-5 ovarian
  TGI: > 100 µM
SK-OV-3 ovarian
  TGI: > 100 µM
NCI-H460 lung
  TGI: 0.796 µM
HT29 colon
  TGI: > 100 µM
CAKI-1 renal
  TGI: 0.385 µM
HCT-15 colon
  TGI: > 100 µM
M14 melanoma
  TGI: > 100 µM
SF-268 CNS
  TGI: > 100 µM
U251 CNS
  TGI: > 40.9 µM
SK-MEL-2 melanoma
  TGI: 0.572 µM
786-0 renal
  TGI: 2.92 µM
A549 NSCLC
  TGI: > 100 µM
K-562 leukemia
  TGI: > 100 µM
OVCAR-3 ovarian
  TGI: > 100 µM
MDA-N
  TGI: 0.675 µM
NCI-H226 lung
  TGI: > 100 µM
BT-549 breast
  TGI: 0.813 µM
SF-539 CNS
  TGI: 0.429 µM
SR leukemia
  TGI: 0.594 µM
A498 renal
  TGI: 0.0523 µM
SNB-19 CNS
  TGI: > 43.2 µM
NCI-H522 lung
  TGI: 0.0834 µM
NCI-H23 lung
  TGI: 0.809 µM
MALME-3M melanoma
  TGI: 0.507 µM
HOP-62 NSCLC
  TGI: > 100 µM
DU-145 prostate
  TGI: 2.77 µM
UACC-62 melanoma
  TGI: 0.304 µM

## C=CCOC(=O)CCCCCCCCCCCCCCCOC(=O)C1=C(CCC[C@@H](C)O[Si](C)(C)C(C)(C)C)NC(=O)N2[C@H](CC3(CC/C=C\[C@H](CC)O[Si](C(C)C)(C(C)C)C(C)C)OCCO3)CC[C@H]12
SN12C renal
  TGI: > 100 µM
ACHN renal
  TGI: > 100 µM
OVCAR-4 ovarian
  TGI: > 100 µM
RPMI-8226 leukemia
  TGI: > 100 µM
PC-3 prostate
  TGI: > 100 µM
SF-295 CNS
  TGI: > 100 µM
HCT-116 colon
  TGI: > 100 µM
TK-10 renal
  TGI: > 100 µM
COLO 205 colon
  TGI: > 100 µM
UO-31 renal
  TGI: > 100 µM
HCC-2998 colon
  TGI: > 100 µM
T-47D breast
  TGI: > 100 µM
OVCAR-5 ovarian
  TGI: > 100 µM
EKVX NSCLC
  TGI: > 100 µM
SK-OV-3 ovarian
  TGI: > 100 µM
NCI/ADR-RES ovarian
  TGI: > 100 µM
NCI-H460 lung
  TGI: > 100 µM
CAKI-1 renal
  TGI: > 100 µM
HCT-15 colon
  TGI: > 100 µM
M14 melanoma
  TGI: > 100 µM
SF-268 CNS
  TGI: > 100 µM
HOP-92 NSCLC
  TGI: 90.2 µM
U251 CNS
  TGI: > 100 µM
SK-MEL-2 melanoma
  TGI: > 100 µM
MCF7 breast
  TGI: > 100 µM
SNB-75 CNS
  TGI: > 100 µM
786-0 renal
  TGI: > 100 µM
A549 NSCLC
  TGI: > 100 µM
MDA-MB-435
  TGI: > 100 µM
OVCAR-3 ovarian
  TGI: > 100 µM
MDA-N
  TGI: > 100 µM
NCI-H226 lung
  TGI: > 100 µM
BT-549 breast
  TGI: > 100 µM
SF-539 CNS
  TGI: > 100 µM
A498 renal
  TGI: > 100 µM
SNB-19 CNS
  TGI: > 100 µM
NCI-H522 lung
  TGI: > 100 µM
NCI-H23 lung
  TGI: > 100 µM
MDA-MB-231 breast
  TGI: > 100 µM
SK-MEL-5 melanoma
  TGI: > 100 µM
CCRF-CEM leukemia
  TGI: > 100 µM
MALME-3M melanoma
  TGI: > 100 µM
HOP-62 NSCLC
  TGI: > 100 µM
SK-MEL-28 melanoma
  TGI: > 100 µM
DU-145 prostate
  TGI: > 100 µM
UACC-257 melanoma
  TGI: > 100 µM
UACC-62 melanoma
  TGI: > 100 µM
KM12 colon
  TGI: > 100 µM
